Reference: patent US5637619A, “Antitumor 2-aminocarbonyl-1, 2-bis(methylsulfonyl)-1-(substituted)hydrazines” (Yale University, priority 1995, dated 1997)
“And” between values parts separate entries of the source, which are not always exact repeats. Identical values can stand only once.

Assays:
[1] = system: B16F10 melanoma; assay: B16F10 melanoma, tumor growth delay in mice; type: in vivo, C57BL/6 mice; conditions: 100% DMSO
Method: B16F10 melanoma cells were grown in vitro as monolayers in minimum essential medium with Hank's salts supplemented with 10% fetal bovine serum and 1% 200 mM L-glutamine solution. Solid tumors were produced in C57BL/6 female mice 12- to 14-weeks of age by the intradermal injection in the right flank of each mouse of 0.1 mL of a cell suspension containing 10^6 B16F10 cells/mL from freshly trypsinized cultures. After 10-12 days, animals bearing approximately 100 mm^3 tumors were treated ip with compound III or IV dissolved in 100% DMSO for 6 consecutive days, and tumor volumes were measured on alternate days until reaching 1000 mm^3.
(§1) Five mice per group were employed in experiments with the B16F10 melanoma, and 8 mice per group with the M5076 sarcoma, the M109 carcinoma and the LX-1 carcinoma. A minimum of two dose levels per compound were included in each evaluation and drug therapy was initiated 24 h after tumor implantation for the M5076 sarcoma and M109 carcinoma. In the LX-1 experiment, tumor bearing mice were selected and sorted into treatment and control groups on day 6 post-tumor implant such that all tumor weights ranged from 50-100 mg and median tumor weights per group were reasonably similar. Therapeutic results are presented in terms of: (a) increases in lifespan reflected by the relative median survival time (MST) of treated versus control groups (i.e., %T/C values), and by long-term survivors, and (b) primary tumor growth inhibition (i.e., T-C values) determined by calculating the relative median times for treated (T) and control untreated (C) mice to grow tumors of a 0.5 g size for the LX-1 carcinoma or a 1 g size for the murine neoplasms. Tumor weights were interchangeable with tumor size on the basis of 1 mm^3 =1 mg. […] The activity criterion for tumor inhibition was a delay in tumor growth consistent with one log10 cell kill (LCK). The absolute T-C value needed to attain this level of efficacy varied from experiment to experiment and depended upon the tumor volume doubling time of the control mice in each study. Treated mice dying prior to day 10 in the ip M109 experiment, or dying before their tumors achieved 0.5 g for the LX-1 carcinoma or 1 g in size for all other sc tumor models, were considered to have died from drug toxicity. Groups of mice with more than one death due to drug toxicity were not used in the evaluation of antitumor efficacy. Statistical evaluations of data were performed using Gehan's generalized Wilcoxan test (Gehan, Biometrika, 1965, 52, 203-233).
In addition, both compounds III and IV were evaluated in 100% DMSO against the B16F10 melanoma implanted intradermally (id) in mice (Table III). In an initial experiment, compound IV produced a T-C of 15.5 days at a daily dosage level of 20 mg/kg administered once daily for six consecutive days beginning on day 10 post-implant. In the same experiment, using the same treatment schedule, a growth delay of 11 days was obtained with compound III. […] Thus, the aminocarbonyl component in this class of agents influences the magnitude of the antitumor effects obtained against the B16F10 melanoma.

[2] = system: LX-1 human lung carcinoma; assay: LX-1 human lung carcinoma xenograft, sc in athymic mice; type: in vivo, human tumor in athymic (nu/nu) mice; conditions: 40 mg/kg/injection, q2d × 5 from day 6, iv, 100% DMSO
Method: (§2) The M5076 reticulum cell sarcoma was passaged biweekly by sc transfer of tumor fragments into C57BL/6 mice, and the M109 lung carcinoma was similarly passaged in BALB/c mice. The LX-1 human lung carcinoma was passaged sc every two to three weeks in BALB/c-background athymic (nu/nu) mice. For use in these systems, compound III was dissolved in: (a) 100% DMSO and administered by iv injection in a fixed volume of 10 microliters; or (b) DMSO diluted with saline to a final concentration of 10% DMSO and administered iv in a volume of 0.01 milliliter/g of body weight. […] Mitomycin C and cyclophosphamide were dissolved and administered in saline. BCNU and MeCCNU were dissolved in ethanol and diluted 1:9 (v/v) with water prior to administration.
as §1
The human lung tumor, LX-1, xenografted sc in athymic mice, was also used to examine the antineoplastic potential of compound III. […]

[3] = system: M109 lung carcinoma; assay: M109 lung carcinoma, sc implanted; type: in vivo, BALB/c mice
Method: as §2, §1
Compound III was also evaluated against the M109 lung carcinoma implanted subcutaneously (sc). In the initial test using this model, a dose of 50 mg/kg per injection of this compound was administered intravenously (iv) in 10% DMSO in saline every fourth day for a total of three injections. […] Mitomycin C, used as a reference drug, produced a maximum %T/C of 103 and a delay in tumor growth of 10 days (data not shown). A subsequent evaluation of compound III was performed using four different doses on a slightly different schedule, i.e., 24, 32, 48 and 64 mg/kg administered every third day for four total injections, and two vehicles, 10% DMSO in saline and 100% DMSO. […] Cyclophosphamide and mitomycin C were included as reference drugs in the last experiment. The former compound produced a maximum %T/C of 143 and a delay in tumor growth of 8.8 days, while mitomycin C produced a maximum %T/C of 134 and a T-C value of 9.3 days (data not shown). As reported earlier, compound X achieved a maximum %T/C of 136 and a maximum T-C value of 14.5 days against this tumor (Shyam, et al., J. Med. Chem., 1993, 36, 3496).

[4] = experiment a, 50 mg/kg/injection, q4d × 3, iv, 10% DMSO in saline
[5] = experiment b, 64 mg/kg/injection, q3d × 4, iv, 100% DMSO

CS(=O)(=O)N(CCCl)N(C(=O)NCCCl)S(C)(=O)=O [Compound III, 1,2-bis(methylsulfonyl)-1-(2-chloroethyl)-2-(2-chloroethyl)aminocarbonylhydrazine]
T-C, growth delay ([1]; experiment a, 20 mg/kg/injection, qd × 6 from day 10, ip, 20 mg/kg): 11 days and 11.0 days
T-C ([1]; experiment b, 20 mg/kg/injection, qd × 6 from day 12, ip): 5.5 days
T-C, growth delay ([1]; experiment b, 30 mg/kg/injection, qd × 6 from day 12, ip): 13.5 days
T-C, median delay in tumor growth to 0.5 g [2]: 14.5 days
log10 cell kill (LCK) [2]: 1.6 LCK
lethality (in words) ([3]; 48 mg/kg per injection, q3d × 4, iv, 10% DMSO in saline): excessively lethal
antitumor effect versus 10% DMSO formulation, statistics (in words) ([3]; 64 mg/kg in 100% DMSO vs best T-C in 10% DMSO in saline, p<0.01): statistically superior (p<0.01)
treatment-associated lethalities (in words) ([3]; 64 mg/kg per injection, q3d × 4, iv, 100% DMSO): without causing any treatment-associated lethalities
%T/C (median survival time) [3, 4]: 115%
T-C, delay in tumor growth [3, 4]: 8.3 days
activity assessment of %T/C (in words) ([3]; experiment a, 50 mg/kg/injection, q4d × 3, iv, criterion T/C ≥125%): not considered to be an active result
%T/C (median survival time), maximum ([3]; experiment b, 24 mg/kg/injection, q3d × 4, iv, 10% DMSO in saline): 143%
T-C, maximum delay in tumor growth ([3]; experiment b, 32 mg/kg/injection, q3d × 4, iv, 10% DMSO in saline): 9.3 days
%T/C (median survival time), maximum [3, 5]: 145%
T-C, delay in tumor growth [3, 5]: 17.8 days
